Measurements: PubChem BioAssay (NCI)
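A five-concentration, 48-hour dose response in 96-well plates underlies each endpoint, interpolated linearly between surrounding concentrations. The concentration for full growth arrest is given as TGI.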

Tests used:
Experiment in all cases: inhibition of tumour cell growth, NCI panel, 48 h
786-0 renal = tested on: 786-0 renal
A498 renal = tested on: A498 renal
A549 NSCLC = tested on: A549 NSCLC
ACHN renal = tested on: ACHN renal
BT-549 breast = tested on: BT-549 breast
CAKI-1 renal = tested on: CAKI-1 renal
CCRF-CEM leukemia = tested on: CCRF-CEM leukemia
COLO 205 colon = tested on: COLO 205 colon
DU-145 prostate = tested on: DU-145 prostate
EKVX NSCLC = tested on: EKVX NSCLC
HCC-2998 colon = tested on: HCC-2998 colon
HCT-116 colon = tested on: HCT-116 colon
HCT-15 colon = tested on: HCT-15 colon
HL-60(TB) leukemia = tested on: HL-60(TB) leukemia
HOP-62 NSCLC = tested on: HOP-62 NSCLC
HOP-92 NSCLC = tested on: HOP-92 NSCLC
HS 578T breast = tested on: HS 578T breast
HT29 colon = tested on: HT29 colon
IGROV1 ovarian = tested on: IGROV1 ovarian
K-562 leukemia = tested on: K-562 leukemia
KM12 colon = tested on: KM12 colon
LOX IMVI melanoma = tested on: LOX IMVI melanoma
M14 melanoma = tested on: M14 melanoma
MALME-3M melanoma = tested on: MALME-3M melanoma
MCF7 breast = tested on: MCF7 breast
MDA-MB-435 = tested on: MDA-MB-435
MDA-N = tested on: MDA-N
MOLT-4 leukemia = tested on: MOLT-4 leukemia
NCI-H226 lung = tested on: NCI-H226 lung
NCI-H23 lung = tested on: NCI-H23 lung
NCI-H460 lung = tested on: NCI-H460 lung
NCI-H522 lung = tested on: NCI-H522 lung
NCI/ADR-RES ovarian = tested on: NCI/ADR-RES ovarian
OVCAR-3 ovarian = tested on: OVCAR-3 ovarian
OVCAR-4 ovarian = tested on: OVCAR-4 ovarian
OVCAR-5 ovarian = tested on: OVCAR-5 ovarian
OVCAR-8 ovarian = tested on: OVCAR-8 ovarian
PC-3 prostate = tested on: PC-3 prostate
RPMI-8226 leukemia = tested on: RPMI-8226 leukemia
RXF 393 renal = tested on: RXF 393 renal
SF-268 CNS = tested on: SF-268 CNS
SF-295 CNS = tested on: SF-295 CNS
SF-539 CNS = tested on: SF-539 CNS
SK-MEL-2 melanoma = tested on: SK-MEL-2 melanoma
SK-MEL-28 melanoma = tested on: SK-MEL-28 melanoma
SK-MEL-5 melanoma = tested on: SK-MEL-5 melanoma
SK-OV-3 ovarian = tested on: SK-OV-3 ovarian
SN12C renal = tested on: SN12C renal
SNB-19 CNS = tested on: SNB-19 CNS
SNB-75 CNS = tested on: SNB-75 CNS
SR leukemia = tested on: SR leukemia
SW-620 colon = tested on: SW-620 colon
T-47D breast = tested on: T-47D breast
TK-10 renal = tested on: TK-10 renal
U251 CNS = tested on: U251 CNS
UACC-257 melanoma = tested on: UACC-257 melanoma
UACC-62 melanoma = tested on: UACC-62 melanoma
UO-31 renal = tested on: UO-31 renal
MDA-MB-231 breast = tested on: MDA-MB-231 breast

Measured: TGI

COc1ccc(C2=NN(C(N)=S)C(c3ccccc3)C2)cc1 (stereo not given)
70.8 µM: A498 renal
78.4 µM: SK-MEL-2 melanoma
96.2 µM: SF-295 CNS
74.8 µM: RPMI-8226 leukemia
77.3 µM: SR leukemia
32.3 µM: SK-MEL-5 melanoma
87.5 µM: SNB-75 CNS
97.5 µM: PC-3 prostate
82.2 µM: MALME-3M melanoma
> 100 µM: 786-0 renal | A549 NSCLC | ACHN renal | BT-549 breast | CAKI-1 renal | CCRF-CEM leukemia | DU-145 prostate | EKVX NSCLC | HCC-2998 colon | HCT-116 colon | HCT-15 colon | HOP-62 NSCLC | HOP-92 NSCLC | HS 578T breast | HT29 colon | IGROV1 ovarian | K-562 leukemia | KM12 colon | LOX IMVI melanoma | M14 melanoma | MDA-MB-435 | MDA-N | MOLT-4 leukemia | NCI-H226 lung | NCI-H23 lung | NCI-H460 lung | NCI/ADR-RES ovarian | OVCAR-3 ovarian | OVCAR-4 ovarian | OVCAR-5 ovarian | OVCAR-8 ovarian | SF-268 CNS | SF-539 CNS | SK-MEL-28 melanoma | SK-OV-3 ovarian | SN12C renal | SNB-19 CNS | SW-620 colon | T-47D breast | TK-10 renal | U251 CNS | UACC-62 melanoma | UO-31 renal
99.1 µM: UACC-257 melanoma
69.6 µM: MCF7 breast
52.9 µM: HL-60(TB) leukemia
58.7 µM: COLO 205 colon
84.1 µM: NCI-H522 lung
88.4 µM: RXF 393 renal

CC(C)(C)OC(=O)N1CCC2(C)CC(=O)CC=C12 (stereo not given)
> 100 µM: 786-0 renal | A549 NSCLC | ACHN renal | BT-549 breast | CAKI-1 renal | CCRF-CEM leukemia | COLO 205 colon | DU-145 prostate | EKVX NSCLC | HCC-2998 colon | HCT-116 colon | HCT-15 colon | HL-60(TB) leukemia | HOP-62 NSCLC | HOP-92 NSCLC | HS 578T breast | HT29 colon | IGROV1 ovarian | K-562 leukemia | KM12 colon | LOX IMVI melanoma | M14 melanoma | MALME-3M melanoma | MCF7 breast | MDA-MB-231 breast | MDA-MB-435 | MDA-N | MOLT-4 leukemia | NCI-H226 lung | NCI-H23 lung | NCI-H460 lung | NCI-H522 lung | NCI/ADR-RES ovarian | OVCAR-3 ovarian | OVCAR-4 ovarian | OVCAR-5 ovarian | OVCAR-8 ovarian | PC-3 prostate | RXF 393 renal | SF-268 CNS | SF-295 CNS | SF-539 CNS | SK-MEL-2 melanoma | SK-MEL-28 melanoma | SK-MEL-5 melanoma | SK-OV-3 ovarian | SN12C renal | SNB-19 CNS | SNB-75 CNS | SR leukemia | SW-620 colon | T-47D breast | TK-10 renal | U251 CNS | UACC-257 melanoma | UACC-62 melanoma | UO-31 renal
